Experimental data reported in patent US20160051514A1, “METHODS FOR TREATMENT OF CARDIOMYOPATHY” (THE BRIGHAM AND WOMEN'S HOSPITAL, INC., priority 2013, published 2016).
“Also recorded” adds a separate entry of the source.

What was measured:
[1] = system: neonatal rat ventricular myocytes expressing 2057del2 plakoglobin; experiment: Cytokine expression in conditioned culture media; assay type: cell-based; conditions: transfected cells
Experimental: (§1) Cytokine expression: Conditioned culture media (after 24 or 48 hr) from control cells and cells expressing 2057del2-plakoglobin in the presence or absence of SB216763 (5 μM, 24 hr) were collected, mixed with a cocktail of biotinylated detection antibodies and incubated with nitro-cellulose membranes spotted in duplicate with control and capture antibodies (R&D Systems). Chemiluminescent signal produced at each spot corresponded to the amount of cytokine bound. Conditioned media from control, un-transfected cultures were assayed for cytokine expression for control purposes.
as §1, with “from” for “from control cells and”, “2057del2 plakoglobin” for “2057del2-plakoglobin”, “non-transfected” for “control, un-transfected”, “as controls.” for “for control purposes.”

[2] = system: neonatal rat ventricular myocytes expressing 2057del2 plakoglobin; experiment: Western immunoblotting of total cellular protein content; assay type: cell-based
Experimental: (§2) Western Immunoblotting: Cells were washed in PBS and scraped from culture dishes in a low ionic strength buffer containing protease inhibitors (1 mM NaHCO3, 5 mM EDTA, 1 mM EGTA, 1 μM leupeptin, 1 μM pepstatin, 0.1 μM aprotinin, 1 mM benzamidine, 1 mM iodoacetamide, 1 mM phenylmethylsulfortylfluoride). Following centrifugation, the pellet was resuspended in the same buffer and aliquots containing 10 μg of total protein were analyzed by SDS polyacrylamide gel electrophoresis. Proteins were detected by enhanced chemiluminescence (ECL. Amersham Corp). All blots were stripped in 62.5 mM Tris-HCl, pH 6.8, 100 mM β-mercapto-ethanol, and re-probed with a mouse monoclonal anti-GAPDH antibody (Fitzgerald) as a loading control.
as §2, with “phenylmethylsulfonylfluoride).” for “phenylmethylsulfortylfluoride).”, “(ECL,” for “(ECL.”

[3] = system: neonatal rat ventricular myocytes expressing 2057del2 plakoglobin; experiment: INa and IK1 current density in neonatal rat ventricular myocytes; assay type: cell-based
Experimental: INa activation and inactivation were measured by whole-cell voltage-clamp according to standard protocols (32,33). Cells were held at a membrane potential of −80 mV after which pulses between −120 and +50 mV were applied in 5 mV steps each with a duration of 250 ms. Inactivation was measured from membrane potentials between −120 mV and +50 mV at maximal activation (26,33). In view of the small size of zebrafish myocytes (cell capacitance of 6.7±2.6pF; n=47) it was not necessary to reduce extracellular [Na+] to achieve voltage control; extracellular [Na+] was reduced to 50 mM in studies of neonatal rat ventricular myocytes Access resistance of the patch electrodes was <7 MΩ. Measurements showing incomplete control of membrane potential were eliminated from analysis. The chemical composition of the external and pipette solutions is described in supplemental information.
The inward rectifier current IK1 was measured using the protocol described by Dobrev et al. and Nemtsas et al. (34,35). Ramp clamps of 1400 ms duration were applied between −120 and +20 mV. After each clamp, external solution containing Ba2+(1 mM) was applied via a large pore pipette placed adjacent to the clamped cell. IK1 was defined as the total current minus the Ba2+-insensitive current (33). Subtraction of the two currents was performed using a MatLab script. […]

[4] = system: 2057del2 plakoglobin zebrafish; experiment: Survival and cardiac physiology in the zebrafish model of ACM; assay type: in vivo
Experimental: In-house software (implemented in MATLAB™) was used to determine heart rate, while measurements of ventricular long and short axes in both diastole and systole were obtained using ImageJ™. Cardiac output was measured as diastolic minus systolic ventricular volume multiplied by heart rate, as outlined by Shin et al (30). Fractional shortening was calculated as end-diastolic diameter minus end-systolic diameter divided by end-diastolic diameter.
Survival studies: Embryos were kept in petri dishes until 7 dpf and then transferred to nursery tanks with larval food. Observations for phenotype and survival were recorded for several weeks. Data are presented as a Kaplan-Meier curve using Graphpad™ software.

[5] = system: mutant desmoglein-2 (Dsg2) knock-in mice; experiment: Mouse model of AC: mutant desmoglein-2 (Dsg2) knock-in; assay type: in vivo; conditions: daily injections for 13 weeks
Experimental: 2 different mouse models of AC were studied: a transgenic line with cardiac myocyte-specific expression of 2057del2 plakoglobin (Plk) and a mutant desmoglein-2 (Dsg2) knock-in model. ECG telemetry and echocardiographic analyses were performed in mutant and wildtype mice treated with daily injections of SB216763 or vehicle for 6 (2057del2 Plk) or 13 (Dsg2) weeks. Hearts excised at selected time points were analyzed for histology, apoptosis and distribution of key intercalated disk proteins.

Cn1cc(C2=C(c3ccc(Cl)cc3Cl)C(=O)NC2=O)c2ccccc21 [SB216763]
Cytokine levels in culture medium, 48 hr exposure ([1]; 5 μM, 48 hr): clear reduction in cytokine levels; also recorded: restored the cytokine profile to control levels | Cytokine profile in culture medium, 24 hr exposure ([1]; 24 hr): no apparent effect on cytokines; also recorded: had no apparent effect on the cytokine profile | Total cellular content of Nav1.5 [2]: nor did exposure to SB216763 affect overall levels of Nav1.5; also recorded: without an apparent change in total cellular content of SAP97 and Nav1.5 | Total cellular content of SAP97 [2]: without apparent changes in the total amount of SAP97; also recorded: without an apparent change in total cellular content of SAP97 and Nav1.5 | Total cellular content of plakoglobin [2]: no apparent change in the total cellular content of plakoglobin; also recorded: had no apparent effect on plakoglobin expression levels | Total cellular content / expression of Cx43 ([2]; control and transfected myocytes, listed as SB2): Increased Cx43 expression was observed | Reduced INa and IK1 current densities in cells expressing mutant plakoglobin [3]: normalized the reduced current densities | Survival at 3 months ([4]; longer term treatment of larval fish (7 days)): substantially increased survival | Cardiac phenotype (bradycardia, contractility, heart failure) ([4]; mutant fish): rescues the heart failure phenotype; also recorded: prevented heart failure; also recorded: prevented bradycardia and contractility defects | Survival at 28 days ([4]; mutant fish): significantly increased survival | Cardiac phenotype (bradycardia, contractility, heart failure) ([4]; mutant fish, listed as SB2): reduced nppb expression and bradycardia, improved contractility | Survival / mortality of mutant fish ([4]; time not stated): reduced mortality; also recorded: increased survival | Developmental abnormalities ([4]; wide range of doses during embryonic or larval development): No developmental abnormalities were observed | QRS duration [5]: 17.1 ± 2.7 ms | Redistribution of junctional signals for Plk, Cx43 and SAP97, and myocardial apoptosis [5]: normalized | Ejection fraction (EF) ([5]; echocardiography): 73.9±6.9% | Fractional shortening (FS) ([5]; echocardiography): 50.2±6.6%
